In brackets after ≈: the same amount, converted by molar mass. Like-named read-outs stand apart in the source and are kept apart here.
Key:
Experiment in all cases: MIC, microbroth dilution
Format in all cases: cell-based
[1] = tested on: Mycobacterium smegmatis ATCC700084; conditions: Mycolicibacterium smegmatis, ATCC700084; rifS; Middlebrook Broth plus ADC Enrichment, 37° C.; read-out: MIC
Experimental: (§1) Representative compounds were assayed for antimicrobial activity as follows: Minimum Inhibitory Concentrations (“MICs”) were determined by the microbroth dilution method as per NCCLS guidelines (National Committee for Clinical Laboratory Standards, 2000), except that all growth incubations were conducted at 37° C. Bacterial cultures were tested in the following bacteriological media: S. aureus, S. epidermidis, and E. coli in Cation-Adjusted Mueller-Hinton Broth, S. pneumoniae in THY Broth supplemented with 1 mg/mL catalase under 5% CO2 atmosphere, S. pyogenes in THY Broth, E. faecalis in BHI Broth, H. influenzae in BHI Broth supplemented with 0.75 μL of 1 mg/mL NAD and 150 μL of 1 mg/ml hematin per 5 mL, and M smegmatis in Middlebrook Broth plus ADC Enrichment.

[2] = tested on: Enterococcus faecalis ATCC29212
Experimental: as §1

[3] = tested on: Staphylococcus aureus ATCC29213
Experimental: as §1

[4] = rifS, BHI Broth, 37° C., read-out: MIC
[5] = rifS, Cation-Adjusted Mueller-Hinton Broth, 37° C., read-out: MIC

| SMILES | MIC [1] | MIC [2, 4] | MIC [3, 5] | MIC [2] | MIC [3] |
| --- | --- | --- | --- | --- | --- |
| CO[C@H]1/C=C/O[C@@]2(C)Oc3c(C)c(O)c4c(c3C2=O)C(=O)C(N2CCOCC2)=C(NC(=O)/C(C)=C\C=C\[C@H](C)[C@H](O)[C@@H](C)[C@@H](O)[C@@H](C)[C@H](OC(=O)N2CCC(N3CCN(c5cc6c(cc5F)c(=O)c(C(=O)O)cn6C5CC5)CC3)CC2)[C@@H]1C)C4=O [Example 57] | 0.063 to 31 µg/mL | 0.25 to 62 µg/mL (≈ 0.212 to 52.6 µM) | 0.002 to 1.95 µg/mL (≈ 0.0017 to 1.65 µM) | – | – |
| CO[C@H]1/C=C/O[C@@]2(C)Oc3c(C)c(O)c4c(c3C2=O)C(=O)C(N2CCOCC2)=C(NC(=O)/C(C)=C\C=C\[C@H](C)[C@H](O)[C@@H](C)[C@@H](O)[C@@H](C)[C@H](OC(=O)NC2CCN(c3c(F)cc5c(=O)c(C(=O)O)cn(C6CC6)c5c3Cl)C2)[C@@H]1C)C4=O (some centres unmarked) [Example 67, 25-O-Desacetyl-(carbonyl-N-7-(3-amino-pyrrolidin-1-yl)-8-chloro-1-cyclopropyl-6-fluoro-4-oxo-1,4-dihydro-quinoline-3-carboxylic acid) 3-morpholino rifamycin S] | 0.063 to 31 µg/mL | 0.25 to 62 µg/mL (≈ 0.221 to 54.8 µM) | 0.002 to 1.95 µg/mL (≈ 0.00177 to 1.72 µM) | – | – |
| CO[C@H]1/C=C/O[C@@]2(C)Oc3c(C)c(O)c4c(c3C2=O)C(=O)C(N2CCOCC2)=C(NC(=O)/C(C)=C\C=C\[C@H](C)[C@H](O)[C@@H](C)[C@@H](O)[C@@H](C)[C@H](OC(=O)NCc2ccc(N(C)C)cc2)[C@@H]1C)C4=O [Example 36, 25-O-Desacetyl-(carbonyl-(4-aminomethyl-phenyl)-dimethyl-amine) 3-morpholino rifamycin S] | 0.063 to 31 µg/mL | 0.25 to 62 µg/mL (≈ 0.273 to 67.8 µM) | 0.002 to 1.95 µg/mL (≈ 0.00219 to 2.13 µM) | – | – |
| CO[C@H]1/C=C/O[C@@]2(C)Oc3c(C)c(O)c4c(c3C2=O)C(=O)C(N2CCOCC2)=C(NC(=O)/C(C)=C\C=C\[C@H](C)[C@@H]2OC(C)(C)O[C@@H]([C@@H](C)[C@H](OC(=O)n3ccnc3)[C@@H]1C)[C@@H]2C)C4=O [Example 4] | 0.063 to 31 µg/mL | 0.25 to 62 µg/mL (≈ 0.286 to 71 µM) | 0.002 to 1.95 µg/mL (≈ 0.00229 to 2.23 µM) | – | – |
| CO[C@H]1/C=C/O[C@@]2(C)Oc3c(C)c(O)c4c(c3C2=O)C(=O)C(N2CCOCC2)=C(NC(=O)/C(C)=C\C=C\[C@H](C)[C@H](O)[C@@H](C)[C@@H](O)[C@@H](C)[C@H](OC(=O)NCCO)[C@@H]1C)C4=O [Example 20, 25-O-Desacetyl-(1-carbonyl-2-aminoethanol) 3-morpholino rifamycin S] | 0.063 to 31 µg/mL | 0.25 to 62 µg/mL (≈ 0.303 to 75.1 µM) | 0.002 to 1.95 µg/mL (≈ 0.00242 to 2.36 µM) | – | – |
| CCN1CC2CN(C(=O)O[C@H]3[C@H](C)[C@H](O)[C@H](C)[C@@H](O)[C@@H](C)/C=C/C=C(/C)C(=O)NC4=C(N5CCOCC5)C(=O)c5c(c(O)c(C)c6c5C(=O)[C@@](C)(O/C=C/[C@H](OC)[C@H]3C)O6)C4=O)CC2C1 (some centres unmarked) [Example 29, 25-O-Desacetyl-(carbonyl-2-ethyl-octahydro-pyrrolo[3,4-c]pyrrole) 3-morpholino rifamycin S] | 0.063 to 31 µg/mL | 0.25 to 62 µg/mL (≈ 0.276 to 68.5 µM) | 0.002 to 1.95 µg/mL (≈ 0.00221 to 2.15 µM) | – | – |
| CO[C@H]1/C=C/O[C@@]2(C)Oc3c(C)c(O)c4c(c3C2=O)C(=O)C(N2CCOCC2)=C(NC(=O)/C(C)=C\C=C\[C@H](C)[C@H](O)[C@@H](C)[C@@H](O)[C@@H](C)[C@H](OC(=O)N2CCN(c3c(F)cc5c(=O)c(C(=O)O)cn(C6CC6)c5c3Cl)CC2)[C@@H]1C)C4=O [Example 17, 25-O-Desacetyl-(8-chloro-1-cyclopropyl-7-[4-(1-carbonyl)-piperazin-1-yl]-6-fluoro-4-oxo-1,4-dihydro-quinoline-3-carboxylic acid) 3-morpholino rifamycin S] | 0.063 to 31 µg/mL | 0.25 to 62 µg/mL (≈ 0.221 to 54.8 µM) | 0.002 to 1.95 µg/mL (≈ 0.00177 to 1.72 µM) | – | – |
| CO[C@H]1/C=C/O[C@@]2(C)Oc3c(C)c(O)c4c(c3C2=O)C(=O)C(N2CCOCC2)=C(NC(=O)/C(C)=C\C=C\[C@H](C)[C@H](O)[C@@H](C)[C@@H](O)[C@@H](C)[C@H](OC(=O)NCc2cccc3ccccc23)[C@@H]1C)C4=O [Example 23, 25-O-Desacetyl-(carbonyl-naphthalen-1-ylmethyl-amino) 3-morpholino rifamycin S] | – | – | – | 0.25 to 62 µg/mL (≈ 0.271 to 67.2 µM) | 0.002 to 1.95 µg/mL (≈ 0.00217 to 2.11 µM) |
| CO[C@H]1/C=C/O[C@@]2(C)Oc3c(C)c(O)c4c(c3C2=O)C(=O)C(N2CCOCC2)=C(NC(=O)/C(C)=C\C=C\[C@H](C)[C@@H]2OC(C)(C)O[C@@H]([C@@H](C)[C@H](OC(=O)N3CCC(=O)C3)[C@@H]1C)[C@@H]2C)C4=O [Example 61] | – | – | – | 0.25 to 62 µg/mL (≈ 0.281 to 69.7 µM) | 0.002 to 1.95 µg/mL (≈ 0.00225 to 2.19 µM) |
| COc1cncc(NC(=O)c2ccc(N3CCNCC3)c(C(F)(F)F)c2)c1 [Example 52, N-(5-Methoxy-pyridin-3-yl)-4-piperazin-1-yl-3-trifluoromethyl-benzamide] | – | – | – | 0.25 to 62 µg/mL (≈ 0.657 to 163 µM) | 0.002 to 1.95 µg/mL (≈ 0.00526 to 5.13 µM) |
| CO[C@H]1/C=C/O[C@@]2(C)Oc3c(C)c(O)c4c(c3C2=O)C(=O)C(N2CCOCC2)=C(NC(=O)/C(C)=C\C=C\[C@H](C)[C@@H]2OC(C)(C)O[C@@H]([C@@H](C)[C@H](OC(=O)N3CCC(=O)CC3)[C@@H]1C)[C@@H]2C)C4=O [Example 54, 25-O-Desacetyl-(carbonyl-N-(4-piperidone)) cyclic-21,23-(1-methylethylideneacetal) 3-morpholino rifamycin S] | – | – | – | 0.25 to 62 µg/mL (≈ 0.277 to 68.6 µM) | 0.002 to 1.95 µg/mL (≈ 0.00221 to 2.16 µM) |

Source: US7250413B2, “C-25 carbamate rifamycin derivatives with activity against drug-resistant microbes” (Cumbre Pharmaceuticals Inc., priority 2004, dated 2007)
